This is an account of results in patent US11452702B2, “Compositions comprising amino acids for use in the treatment of mitochondrial dysfunction-related diseases” (PROFESSIONAL DIETETICS INTERNATIONAL S.R.L., priority 2017, dated 2022).

The test system of the assay is HL-1 cardiomyocytes. Kind of assay: Oxygen consumption (Clark-type oxygen electrode) in HL-1 cardiomyocytes. Type of assay: cell-based, Mus musculus. As to conditions: HL-1 cells, 48 hr treatment, normalized to protein content; FIG. 5. As for the experimental part: Oxygen consumption in HL-1 cardiomyocytes treated with amino acid based compositions or DETA-NO for 48 hr. ****p<0.001 vs. untreated cell; ####p<0.001 vs. BCAAem and B2.
An amount of 1 ml of HL-1 cardiomyocytes treated with the compositions shown in Table 1 was re-suspended in Hank's balanced salt solution (Sigma) and spun down to pellet cells. A number of HL-1 cells was also supplemented with a nitic oxide (NO) donor, specifically with diethylenetriamine-NO also called DETA-NO (Sigma-Aldrich, Milan, Italy), as positive control.
Then, cells were re-suspended in a respiration buffer (0.3 M mannitol, 10 mM KCl, 5 mM MgCl2, 10 mM K2PO4, pH 7.4) at a density of 3.0×10^6/ml.
Samples were analyzed at 37° C. in a gas-tight vessel equipped with a Clark-type oxygen electrode (Rank Brothers Ltd.) connected to a chart recorder.
The oxygen electrode was calibrated assuming the concentration of oxygen in the incubation medium as 200 μmol/l at 37° C.
Oxygen consumption was assessed with continuous mixing for about ten minutes. The slope of the trace recorder was then used to calculate oxygen consumption. Oxygen content may vary depending on the amount of cells. Thus, protein content, which directly correlates with cell content, has been used to normalize the oxygen consumption in cell samples. Protein content was determined by using the bicinchoninic acid protein (BCA) assay.

SMILES strings stand for the structures.

Turning to `NCCN(CCN)/[N+]([O-])=N/O` [DETA-NO, diethylenetriamine-NO], the oxygen consumption result was “rise”.
